How the values were obtained:
[1] = biological target: T1, KRAS-G12C/SOS1 (Homo sapiens, UniProt Q07889); assay: KRAS-G12C/SOS1 binding assay (HTRF); conditions: inhibition of KRAS-G12C/SOS1 binding
T1 construct: purchased Cisbio 63ADKOOOCB16PEG
T1 sequence (Q07889 1-1333): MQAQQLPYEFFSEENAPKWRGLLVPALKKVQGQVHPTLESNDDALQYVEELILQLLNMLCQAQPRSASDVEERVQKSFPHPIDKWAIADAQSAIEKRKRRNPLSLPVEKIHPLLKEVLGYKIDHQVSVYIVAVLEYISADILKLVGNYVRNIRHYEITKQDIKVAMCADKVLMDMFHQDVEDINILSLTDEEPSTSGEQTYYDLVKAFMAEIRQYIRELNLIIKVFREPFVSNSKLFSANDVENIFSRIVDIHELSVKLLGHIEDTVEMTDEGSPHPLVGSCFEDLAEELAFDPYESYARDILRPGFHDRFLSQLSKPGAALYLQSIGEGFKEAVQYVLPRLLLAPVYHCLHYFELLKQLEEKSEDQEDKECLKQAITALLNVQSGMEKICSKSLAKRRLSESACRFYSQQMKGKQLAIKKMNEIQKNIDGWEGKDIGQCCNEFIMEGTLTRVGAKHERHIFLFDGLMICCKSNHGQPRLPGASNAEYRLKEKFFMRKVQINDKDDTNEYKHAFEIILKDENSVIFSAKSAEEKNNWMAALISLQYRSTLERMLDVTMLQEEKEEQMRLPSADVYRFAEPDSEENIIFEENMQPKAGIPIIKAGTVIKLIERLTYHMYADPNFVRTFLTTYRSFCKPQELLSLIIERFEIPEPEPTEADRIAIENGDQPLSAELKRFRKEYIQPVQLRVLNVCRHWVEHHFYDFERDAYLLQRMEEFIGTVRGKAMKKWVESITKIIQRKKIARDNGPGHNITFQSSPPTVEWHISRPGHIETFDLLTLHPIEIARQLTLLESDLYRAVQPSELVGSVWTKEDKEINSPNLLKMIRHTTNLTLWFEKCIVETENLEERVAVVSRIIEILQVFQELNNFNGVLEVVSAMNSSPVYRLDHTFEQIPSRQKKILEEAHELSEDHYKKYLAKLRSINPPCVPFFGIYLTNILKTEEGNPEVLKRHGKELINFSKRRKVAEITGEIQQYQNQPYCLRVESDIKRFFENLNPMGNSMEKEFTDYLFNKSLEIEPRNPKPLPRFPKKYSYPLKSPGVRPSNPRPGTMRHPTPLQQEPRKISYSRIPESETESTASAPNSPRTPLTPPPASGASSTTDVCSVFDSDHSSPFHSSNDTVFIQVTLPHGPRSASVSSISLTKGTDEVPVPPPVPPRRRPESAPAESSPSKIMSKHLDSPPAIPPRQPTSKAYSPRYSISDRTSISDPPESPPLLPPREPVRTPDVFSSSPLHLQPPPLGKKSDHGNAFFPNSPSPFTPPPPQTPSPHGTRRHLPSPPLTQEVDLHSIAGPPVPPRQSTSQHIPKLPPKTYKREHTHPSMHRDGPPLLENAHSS
Description: The following method was used to determine the extent of inhibition of KRAS-G12C/SOS1 binding by the preferred compounds of the present invention under in vitro conditions. In this method, the competitive inhibition of KRAS-G12C/SOS1 binding by the preferred compounds was assayed by the homogeneous time-resolved fluorescence (HTRF) technology using the KRAS-G12C/SOS1 binding assay kit (Cisbio, 63ADKOOOCB16PEG).
The experimental procedures were as follows (refer to the kit instructions for details): the compounds of the present invention were each firstly dissolved in DMSO at a concentration of 20 mM, and then diluted in an equal gradient with a buffer in the kit, so that the final concentrations of the test compounds in the reaction system were in a range of 10000 nM-0.04 nM, and the final concentration of DMSO was 0.5%. 2 μL of the compounds were each incubated with 4 μL of 1×Tag1-SOS1, 4 μL of 1×Tag2-KRAS-G12C (containing 10 μM guanosine triphosphate, GTP) at 25° C. for 15 min. Then 5 μL of 1× Anti-Tag1-Tb3+ and 5 μL of 1× Anti-Tag2-XL665 were added to the reaction system, and the mixture was incubated on ice for 3 h. After the incubation, the fluorescence intensity of each well was measured at the excitation wavelength of 337 nm, the fluorescence intensity of each well was read at the emission wavelengths of 620 nm and 665 nm on a microplate reader EnVision (PerkinElmer, 2105) in an HTRF mode, and the Ratio value was calculated by the formula Ratio=(665 nm/620 nm)×[…]. The inhibition rates of the compounds at each concentration were calculated by comparing the fluorescence intensity ratio with that of the control group, and then nonlinear curve fitting was performed by GraphPad Prism 8 in the logarithmic concentration-inhibition rate to obtain the IC50 values of the compounds, as shown in Table 1.

[2] = biological target: T2, SOS1 protein (Homo sapiens, UniProt Q07889); assay: SOS1 degradation assay (Western blot), NCI-H358 cells; format: cell-based; set-up: The degradation of SOS1 by the compounds was investigated on KRAS G12C mutant human non-small cell lung cancer cells NCI-H358; host or cells: NCI-H358 (human cancer cell lines); conditions: SOS1 degradation, NCI-H358 cells, 24 h, Western blot; for DC50: read-out: NCI-H358 (G12C) DC50; for Dmax: read-out: NCI-H358 (G12C) Dmax
T2 sequence (Q07889 1-1333): T1 sequence (Q07889 1-1333)
Outline: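 Cells at 5×10^5 per well were treated for 24 h at 37 °C with compound at 0.03–3000 nM final. SOS1 in lysates was measured by Western blot with chemiluminescent densitometry and normalised to the control group. DC50 and Dmax came from nonlinear fits against log concentration.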

Row | IC50 [1] [nM] | DC50 [2] [nM] | Dmax [2] [%] | Structure (SMILES)
1 | ≤ 15 | 100 to 500 | 50 to 80 | COc1cc2nc(C)nc(N[C@H](C)c3cc(-c4c(Cl)cccc4CN(C)C)cs3)c2cc1[C@H]1CC[C@H](C(=O)N2CCC(OCCCC3CCN(C(=O)c4ccc(Cl)c(N5CCC(=O)NC5=O)c4)CC3)CC2)CC1 [Example 61, 1-(2-chloro-5-(4-(3-((1-((1R,4R)-4-(4-(((R)-1-(4-(2-chloro-6-((dimethylamino)methyl)phenyl)thien-2-yl)ethyl)amino)-7-methoxy-2-methylquinazolin-6-yl)cyclohexane-1-carbonyl)piperidin-4-yl)oxy)propyl)piperidine-1-carbonyl)phenyl)dihydropyrimidine-2,4(1H,3H)-dione]
2 | ≤ 15 | < 50 | 80 to 100 | COc1cc2nc(C)nc(N[C@H](C)c3cc(-c4c(Cl)cccc4CN(C)C)cs3)c2cc1[C@H]1CC[C@H](C(=O)N2CCC(CCCOC3CCN(C(=O)c4ccc(Cl)c(N5CCC(=O)NC5=O)c4)CC3)CC2)CC1 [Example 54, 1-(2-chloro-5-(4-(3-(1-((1R,4R)-4-(4-(((R)-1-(4-(2-chloro-6-((dimethylamino)methyl)phenyl)thien-2-yl)ethyl)amino)-7-methoxy-2-methylquinazolin-6-yl)cyclohexane-1-carbonyl)piperidin-4-yl)propoxy)piperidine-1-carbonyl)phenyl)dihydropyrimidine-2,4(1H,3H)-dione]
3 | ≤ 15 | < 50 | 50 to 80 | COCCOc1cc2nc(C)nc(N[C@H](C)c3cc(N)cc(C(F)(F)F)c3)c2cc1[C@H]1CC[C@H](C(=O)N2CCN(CC3CCC4(CC3)CCN(C(=O)c3ccc(Cl)c(N5CCC(=O)NC5=O)c3)CC4)CC2)CC1 [Example 43, 1-(5-(9-((4-((1R,4R)-4-(4-(((R)-1-(3-amino-5-(trifluoromethyl)phenyl)ethyl)amino)-7-(2-methoxyethoxy)-2-methylquinazolin-6-yl)cyclohexane-1-carbonyl)piperazin-1-yl)methyl)-3-azaspiro[5.5]undecane-3-carbonyl)-2-chlorophenyl)dihydropyrimidine-2,4(1H,3H)-dione]
4 | ≤ 15 | < 50 | 50 to 80 | COc1cc2nc(C)nc(N[C@H](C)c3cc(-c4c(Cl)cccc4CN(C)C)cs3)c2cc1[C@H]1CC[C@H](C(=O)N2CCN(CCCOC3CCN(C(=O)c4ccc(Cl)c(N5CCC(=O)NC5=O)c4)CC3)CC2)CC1 [Example 68, 1-(2-chloro-5-(4-(3-(4-((1R,4R)-4-(4-(((R)-1-(4-(2-chloro-6-((dimethylamino)methyl)phenyl)thien-2-yl)ethyl)amino)-7-methoxy-2-methylquinazolin-6-yl)cyclohexane-1-carbonyl)piperazin-1-yl)propoxy)piperidine-1-carbonyl)phenyl)dihydropyrimidine-2,4(1H,3H)-dione]
5 | ≤ 15 | 1000 to 10000 | < 30 | COc1cc2nc(C)nc(N[C@H](C)c3cc(-c4c(Cl)cccc4CN(C)C)cs3)c2cc1[C@H]1CC[C@H](C(=O)N2CCC(COCC3CCN(C(=O)c4ccc(Cl)c(N5CCC(=O)NC5=O)c4)CC3)CC2)CC1 [Example 65, 1-(2-chloro-5-(4-(((1-((1R,4R)-4-(4-(((R)-1-(4-(2-chloro-6-((dimethylamino)methyl)phenyl)thien-2-yl)ethyl)amino)-7-methoxy-2-methylquinazolin-6-yl)cyclohexane-1-carbonyl)piperidin-4-yl)methoxy)methyl)piperidine-1-carbonyl)phenyl)dihydropyrimidine-2,4(1H,3H)-dione]
6 | ≤ 15 | < 50 | 80 to 100 | COc1cc2nc(C)nc(N[C@H](C)c3cc(-c4c(Cl)cccc4CN(C)C)cs3)c2cc1[C@H]1CC[C@H](C(=O)N2CCN(CCC3CCC4(CC3)CCN(C(=O)c3ccc(Cl)c(N5CCC(=O)NC5=O)c3)CC4)CC2)CC1 [Example 62, 1-(2-chloro-5-(9-(2-(4-((1R,4R)-4-(4-(((R)-1-(4-(2-chloro-6-((dimethylamino)methyl)phenyl)thien-2-yl)ethyl)amino)-7-methoxy-2-methylquinazolin-6-yl)cyclohexane-1-carbonyl)piperazin-1-yl)ethyl)-3-azaspiro[5.5]undecane-3-carbonyl)phenyl)dihydropyrimidine-2,4(1H,3H)-dione]
7 | ≤ 15 | < 50 | 80 to 100 | COc1cc2nc(C)nc(N[C@H](C)c3cc(-c4c(Cl)cccc4CN(C)C)cs3)c2cc1[C@H]1CC[C@H](C(=O)N2CCC(CCCCN3CCN(C(=O)c4ccc(Cl)c(N5CCC(=O)NC5=O)c4)CC3)CC2)CC1 [Example 56, 1-(2-chloro-5-(4-(4-(1-((1R,4R)-4-(4-(((R)-1-(4-(2-chloro-6-((dimethylamino)methyl)phenyl)thien-2-yl)ethyl)amino)-7-methoxy-2-methylquinazolin-6-yl)cyclohexane-1-carbonyl)piperidin-4-yl)butyl)piperazine-1-carbonyl)phenyl)dihydropyrimidine-2,4(1H,3H)-dione]
8 | ≤ 15 | < 50 | 80 to 100 | COc1cc2nc(C)nc(N[C@H](C)c3cc(N)cc(C(F)(F)F)c3)c2cc1C1=CCC(C(=O)N2CCN(CC3CCC4(CC3)CCN(C(=O)c3ccc(Cl)c(N5CCC(=O)NC5=O)c3)CC4)CC2)CC1 (stereo partly drawn) [Example 51, 1-(5-(9-((4-(4-(4-(((R)-1-(3-amino-5-(trifluoromethyl)phenyl)ethyl)amino)-7-methoxy-2-methylquinazolin-6-yl)cyclohex-3-ene-1-carbonyl)piperazin-1-yl)methyl)-3-azaspiro[5.5]undecane-3-carbonyl)-2-chlorophenyl)dihydropyrimidine-2,4(1H,3H)-dione]
9 | ≤ 15 | 100 to 500 | 50 to 80 | COc1cc2nc(C)nc(N[C@H](C)c3cc(-c4c(Cl)cccc4CN(C)C)cs3)c2cc1[C@H]1CC[C@H](C(=O)N2CCN(CC3CCC4(CC3)CCN(C(=O)c3ccc(C5CCC(=O)NC5=O)cc3)CC4)CC2)CC1 (stereo partly drawn) [Example 52, 3-(4-(9-((4-((1R,4R)-4-(4-(((R)-1-(4-(2-chloro-6-((dimethylamino)methyl)phenyl)thien-2-yl)ethyl)amino)-7-methoxy-2-methylquinazolin-6-yl)cyclohexane-1-carbonyl)piperazin-1-yl)methyl)-3-azaspiro[5.5]undecane-3-carbonyl)phenyl)piperidine-2,6-dione]

Source: US20240261417A1, “SOS1 DEGRADING AGENT AND PREPARATION METHOD THEREFOR AND APPLICATION THEREOF” (SHANGHAI LEADINGTAC PHARMACEUTICAL CO. LTD., priority 2021, published 2024)
